Experimental data published in US12708673B2, “Methods and compositions related to peptides and proteins with c-terminal elements” (Sanford Burnham Prebys Medical Discovery Institute, priority 2008, dated 2026).
“Also recorded” adds a separate entry of the source.

What was measured:
[1] = tested on: PPC-1 cells; experiment: T7 phage binding to PPC-1 (PPC1) cells at 4° C., quantified by titration/plaque assay; assay type: cell-based, human
Experimental: (§1) FIG. 2A: Binding of T7 phage to prostate cancer cells depends on the display of a C-terminal arginine on the phage particles. PPC1 cells were incubated with T7 bacteriophage displaying derivatives of the G7 (upper graph) or RPARPAR peptide (SEQ ID NO: 2) (lower graph) at 4° C., and the bound phage was quantified by plaque assay. Binding is expressed in fold over of the non-binding G7 control phage. FIG. 2B: Phage displaying C-terminal arginine is internalized into cultured PPC1 cells (arrow, nuclear internalization; arrowhead, cytoplasmic internalization). A panel of T7 phage clones were incubated at 37° C. with PPC1 cells grown on collagen-coated coverslips, stained with anti T7 antibody and imaged by confocal microscopy.
(§2) Phage display. For in vivo phage display, mice were injected intravenously with 10^10 plaque-forming units (pfu) of T7 phage followed by perfusion of the circulatory system and determination of the bound phage in target organs by titration. For cell binding studies on cultured cells (in vitro display) and organ-derived cell suspensions (ex vivo display), the cells were incubated with 10^9 pfu of phage at 4° C., washed, lysed, and quantified by titration. Incubation at 37° C. followed by low pH wash (glycine-HCl, pH 2.5) was used to assess the amount of internalized phage.
(§3) For biopanning and phage binding studies (Hoffman, J. A. et al., 2004), cultured cells were grown to confluence and harvested with trypsin and mouse organs were dissociated using Medimachine (BD Biosciences, San Jose, CA). To measure phage binding, 10^6 cells in binding buffer (DMEM containing 1% BSA) were incubated with 10^9 pfu/ml of T7 phage for 1 hour at 4° C. The cells were washed 4 times with the binding buffer, lysed in LB bacterial growth medium containing 1% NP-40, and titrated. Phage internalization assays used the same procedure, except that the cells were incubated with the phage at 37° C., and that an acidic buffer (500 mM sodium chloride, 0.1 M glycine, 1% BSA, pH 2.5) was used instead of binding buffer in the second wash.
(§4) Centrifugation on a silicone oil cushion (1.03 g/ml) was used to separate unbound phage from cells during time course experiments. Inhibitors of phage binding and internalization (heparin, chondroitin, glycocalyx removal enzymes, endocytosis inhibitors, free peptides, quantum dots and UV-inactivated phage) were added to the cells 20 minutes prior to incubation with phage. Endocytosis inhibitors used in this study were the following: nystatin (50 μg/ml), genistein (100 μg/ml), chlorpromazine (5 μg/ml), 5-(N-ethyl-N-isopropyl) amiloride (100 μM), wortmannin (10 μM).

[2] = tested on: MDA-MB-435 human cancer cells; experiment: RPARPAR phage binding to cultured cells at 4° C.; assay type: cell-based
Experimental: (§5) FIG. 15A: Binding of RPARPAR (SEQ ID NO:2) phage to the cultured cells at 4° C. in vitro. FIG. 15B: Binding of RPARPAR (SEQ ID NO:2) phage to primary cell suspensions of mouse organs at 4° C. ex vivo. FIGS. 15C and 15D: Tissue distribution of intravenously injected RPARPAR (SEQ ID NO:2) phage after 20 minutes of circulation time. FIG. 15C: Phage was quantified by titration, tissue binding is expressed as fold G7 phage. Statistical analysis was performed by Student's t-test (c). n=3; error bars indicate s.d.; double asterisk, p<0.01, triple asterisk, p<0.001. FIG. 15D (panels d and e): Immunofluorescence localization of T7 phage (light coloring) in lung sections of mice injected intravenously with RPARPAR (SEQ ID NO:2) (d) or G7 (e) phage. Widespread immunoreactivity is present in the lungs of mice injected with RPARPAR (SEQ ID NO:2) (arrowheads in d) but not G7 (with occasional labeling seen in vessels, arrows in e). Scale bar: 50 μm.
as §2, §3

[3] = tested on: B16F10; experiment: RPARPAR phage binding to cultured cells at 4° C.; assay type: cell-based; details: B16F10 melanoma cells
Experimental: as §5, §2, §3

[4] = tested on: M21 melanoma cells; experiment: RPARPAR phage binding to cultured cells at 4° C.; assay type: cell-based; details: non-transfected M21
Experimental: as §5, §2, §3

[5] = tested on: MIA PaCa-2; experiment: RPARPAR phage binding to cultured cells at 4° C.; assay type: cell-based; details: MIA PaCa-2 pancreatic carcinoma
Experimental: as §5, §2, §3

[6] = tested on: human umbilical vein endothelial cells (HUVEC); experiment: RPARPAR phage binding to cultured cells at 4° C.; assay type: cell-based
Experimental: as §5, §2, §3

[7] = tested on: PDAC1.3; experiment: RPARPAR phage binding to cultured cells at 4° C.; assay type: cell-based; details: PDAC1.3 pancreatic carcinoma
Experimental: as §5, §2, §3

[8] = tested on: 4T1; experiment: RPARPAR phage binding to cultured cells at 4° C.; assay type: cell-based; details: 4T1 breast cancer
Experimental: as §5, §2, §3

[9] = tested on: murine vascular endothelial cells (F2); experiment: RPARPAR phage binding to cultured cells at 4° C.; assay type: cell-based
Experimental: as §5, §2, §3

[10] = tested on: PPC-1 cells; experiment: T7 phage internalization into PPC-1 (PPC1) cells at 37° C. (acid wash and titration, or anti-T7 staining and confocal imaging); assay type: cell-based, human
Experimental: as §1, §2, §3, §4
Immunofluorescence staining. Cultured cells (2×10^5 cells) were grown in 6-well tissue culture plates on collagen-I coated coverslips (BD Biosciences, San Jose, CA) overnight at 37° C. in 5% CO2, and incubated with 10^8 pfu of T7 phage. The cells were fixed in 4% paraformaldehyde or cold (−20° C.) methanol, and stained with antibodies. Nuclei were stained with DAPI or […]. A polyclonal rabbit anti-T7 antibody was generated in-house as described previously (Laakkonen, P. et al. 2002b), except that an additional phage purification step using […] centrifugation was included. Other primary antibodies used were rat anti-mouse CD31 monoclonal antibody (BD Biosciences), rabbit anti-NRP-1, mouse anti-human Lamp-1, mouse anti-human caveolin (Millipore, Temecula, CA), mouse anti-NRP-1 (Miltenyi Biotec Inc., Auburn, CA), mouse anti-human EEA-1 (BD Biosciences, San Jose, CA). The secondary antibodies, Alexa594 goat antibodies to mouse, rat, and rabbit immunoglobulins and Alexa488 donkey anti-rabbit antibody were from Invitrogen (Carlsbad, CA). Cells and tissue sections were examined by confocal microscopy (Fluoview 500, Olympus America Inc., Center Valley, PA).

RPARPAR [RPARPAR phage]
Phage binding to PPC-1 cells (in words) ([1]; 4° C.): stronger binding than the GGGGGGR; also recorded: robust binding and internalization | Time to plateau of phage binding ([1]; 4° C.): 20 min | Phage binding after trypsin treatment of PPC-1 cells ([1]; trypsin treatment of cells prior to binding, data not shown): decreased binding | Phage binding [2]: bound | Phage binding [3]: bound | Phage binding over control phage [4]: did not bind; also recorded: do not bind nor internalize | Phage binding [5]: bound | Phage binding [6]: binding was also seen | Phage binding [7]: bound | Phage binding [8]: bound | Phage binding [9]: binding was also seen | Effect of pre-incubation with UV-inactivated phage on iRGD phage internalization [10]: decreased | Phage internalization into PPC-1 cells (in words) ([10]; 37° C.): robust binding and internalization | Time to perinuclear accumulation ([10]; phage, 37° C.): 1 h | Time to plasma membrane association ([10]; phage, 37° C.): 15 min
